Measurements as given in PubChem BioAssay (NCI).
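Protocol summary: plate cells (96-well), add compound at 5 concentrations, incubate 48 h, interpolate endpoints linearly. Abbreviation: GI50, concentration required for 50% inhibition of growth. The concentration for full growth arrest is given as TGI.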

Legend:
Experiment in all cases: NCI anticancer screen, dose series, 48 h
A549 NSCLC = system: A549 NSCLC
HCT-15 colon = system: HCT-15 colon
HL-60(TB) leukemia = system: HL-60(TB) leukemia
KM12 colon = system: KM12 colon
OVCAR-8 ovarian = system: OVCAR-8 ovarian
T-47D breast = system: T-47D breast
UACC-257 melanoma = system: UACC-257 melanoma
HT29 colon = system: HT29 colon
SNB-75 CNS = system: SNB-75 CNS
TK-10 renal = system: TK-10 renal

Row | SMILES | GI50 (A549 NSCLC) | TGI (A549 NSCLC) | GI50 (HCT-15 colon) | TGI (HCT-15 colon) | GI50 (HL-60(TB) leukemia) | TGI (HL-60(TB) leukemia) | GI50 (KM12 colon) | TGI (KM12 colon) | GI50 (OVCAR-8 ovarian) | TGI (OVCAR-8 ovarian) | GI50 (T-47D breast) | TGI (T-47D breast) | GI50 (UACC-257 melanoma) | TGI (UACC-257 melanoma) | TGI (HT29 colon) | TGI (SNB-75 CNS) | TGI (TK-10 renal) | GI50 (HT29 colon) | GI50 (SNB-75 CNS)
1 | CC(C)c1ccc2c(c1)CC[C@@H]1[C@@](C)(C(=O)O)CCC[C@]21C | 5.56 µM | 25 µM | 6.38 µM | 19.6 µM | 3.4 µM | 20.9 µM | 5.44 µM | 19.5 µM | 2.16 µM | 7.87 µM | 2.39 µM | 7.58 µM | 0.33 µM | 3.86 µM | – | – | – | – | –
2 | CS(=O)(=O)Nc1ccc2c(c1)oc(=O)c1ccccc12 | – | > 100 µM | – | > 100 µM | – | > 100 µM | – | > 100 µM | – | > 100 µM | – | > 100 µM | – | > 100 µM | > 100 µM | > 100 µM | – | – | –
3 | CCOC(=O)C1(C#N)C(c2ccccc2)CC(O)(c2ccc(OC)cc2)C(C(=O)c2ccc(OC)cc2)C1c1ccccc1 (centres undefined) | – | > 100 µM | – | > 100 µM | – | > 100 µM | – | > 100 µM | – | > 100 µM | – | – | – | > 100 µM | > 100 µM | 95.3 µM | > 100 µM | – | –
4 | CN(C)c1ccc(C(C=C2c3ccccc3Sc3ccccc32)=C(C#N)C#N)cc1 | – | > 100 µM | – | > 100 µM | – | > 100 µM | – | > 100 µM | – | > 100 µM | – | – | – | > 100 µM | > 100 µM | 89.9 µM | > 100 µM | – | –
5 | C=C1C(=O)OC2CCN3CC=C(COC(=O)C(C)(O)C4(CO4)C1C)C23 (centres undefined) | – | > 100 µM | – | > 100 µM | – | – | – | > 100 µM | – | > 100 µM | – | > 100 µM | – | > 100 µM | > 100 µM | – | > 100 µM | – | –
6 | CC(C)(C)CC(C)(C)c1cc2c(O)c(c1)Cc1cc(C(C)(C)CC(C)(C)C)cc(c1O)Cc1cc(C(C)(C)CC(C)(C)C)cc(c1O)Cc1cc(C(C)(C)CC(C)(C)C)cc(c1O)C2 | – | > 100 µM | – | > 100 µM | – | > 100 µM | – | > 100 µM | – | > 100 µM | – | – | – | > 100 µM | > 100 µM | > 100 µM | > 100 µM | – | –
7 | COC(=O)C(=Cc1cc(OC)ccc1OC)C(=O)OC | – | 92 µM | – | > 100 µM | – | 59.1 µM | – | 42.8 µM | – | > 100 µM | – | – | – | 35.1 µM | 56.5 µM | 97 µM | 97.4 µM | – | –
8 | Cc1cc([N+](=O)[O-])ccc1Nc1cccc(Cl)c1C | – | 40.2 µM | – | 35 µM | – | 41.6 µM | – | 31 µM | – | 30.3 µM | – | – | – | 40.4 µM | 32 µM | 52.7 µM | 30 µM | – | –
9 | Cc1ccc(Cc2c(=O)[nH]nc3ccccc23)cc1 | – | > 100 µM | – | > 100 µM | – | – | – | > 100 µM | – | > 100 µM | – | – | – | > 100 µM | > 100 µM | > 100 µM | > 100 µM | – | –
10 | COc1cnc2c(c1)C(=O)c1c-2n(CCCNC(C)C)c(=O)c2cc(Cl)ccc12 | 0.0902 µM | 2.07 µM | 1.08 µM | 2.78 µM | 0.3 µM | 1.69 µM | 1.09 µM | 2.45 µM | 0.286 µM | 2.13 µM | 0.278 µM | 2.55 µM | 12.1 µM | 32.8 µM | 2.09 µM | 1.59 µM | – | 0.398 µM | 0.146 µM
11 | CC(C)N(C(=O)C12C3C4C5(C#N)C3C1(C#N)C5C42I)C(C)C (centres undefined) | – | > 100 µM | – | > 100 µM | – | > 55.6 µM | – | > 100 µM | – | > 100 µM | – | – | – | > 100 µM | > 100 µM | > 100 µM | > 100 µM | – | –
12 | CCCN=C(N)NC#N | – | > 100 µM | – | 38.2 µM | – | > 100 µM | – | > 100 µM | – | > 100 µM | – | – | – | > 100 µM | > 100 µM | > 100 µM | > 100 µM | – | –
13 | COc1ccc(C(=O)C(c2ccc(OC)cc2)C2(O)C(=O)Nc3ccc([N+](=O)[O-])cc32)cc1 (centres undefined) | – | > 100 µM | – | > 100 µM | – | > 100 µM | – | > 100 µM | – | > 100 µM | – | – | – | > 100 µM | > 100 µM | > 100 µM | > 100 µM | – | –
14 | CCCCC(C(=O)C(=O)NC1C2CC3CC(C2)CC1C3)C(=O)C(C)C (centres undefined) | – | > 100 µM | – | > 100 µM | – | > 100 µM | – | > 100 µM | – | > 100 µM | – | – | – | > 100 µM | > 100 µM | > 100 µM | > 100 µM | – | –
15 | COc1ccc2c3c([nH]c2c1[N+](=O)[O-])C(C)=NCC3 | – | > 100 µM | – | > 100 µM | – | > 100 µM | – | > 100 µM | – | > 100 µM | – | – | – | > 100 µM | > 100 µM | > 100 µM | > 100 µM | – | –
16 | COC(=O)C1=C(O)c2cc(OC)c(OC)cc2C(c2ccc(OC)c(OC)c2)C1 (centres undefined) | – | > 100 µM | – | > 100 µM | – | > 100 µM | – | > 100 µM | – | > 100 µM | – | – | – | > 100 µM | > 100 µM | > 100 µM | > 100 µM | – | –
17 | CC1=NNC(=O)C2CCC(=O)N12 (centres undefined) | – | > 100 µM | – | > 100 µM | – | > 100 µM | – | > 100 µM | – | > 100 µM | – | – | – | > 100 µM | – | > 100 µM | > 100 µM | – | –
18 | NNC(=S)N/N=C(\CC1OC(=O)c2ccccc21)c1ccccc1O (centres undefined) | – | > 100 µM | – | > 100 µM | – | > 100 µM | – | > 100 µM | – | > 100 µM | – | – | – | > 100 µM | > 100 µM | 86.1 µM | > 100 µM | – | –
19 | N#Cc1nc(Nc2cccc3ccccc23)sc1N | – | > 100 µM | – | > 100 µM | – | > 100 µM | – | > 100 µM | – | > 100 µM | – | – | – | 41.1 µM | > 100 µM | > 100 µM | 76.9 µM | – | –
20 | O=C(/C=C/c1ccccc1O)c1ccccc1O | – | > 100 µM | – | > 100 µM | – | > 100 µM | – | > 100 µM | – | > 100 µM | – | – | – | > 100 µM | > 100 µM | > 100 µM | > 100 µM | – | –
21 | CN(C)/C=N/c1nc2c(ncn2C2OC(CO)C(O)C2O)c(=O)[nH]1 (centres undefined) | – | > 100 µM | – | > 100 µM | – | > 100 µM | – | > 100 µM | – | > 100 µM | – | – | – | > 100 µM | > 100 µM | > 100 µM | > 100 µM | – | –
22 | CN(C)c1nc2ccccc2[nH]1 | – | > 100 µM | – | > 100 µM | – | > 100 µM | – | > 100 µM | – | > 100 µM | – | – | – | > 100 µM | > 100 µM | > 100 µM | > 100 µM | – | –
